Measured values: patent publication US20260063641A1, “COMPOSITIONS AND METHODS FOR LABELING AND DETECTING BINDING PARTNERS” (UNIVERSITY OF UTAH RESEARCH FOUNDATION, priority 2022, published 2026)
Entries after “also recorded” stand apart in the source; their conditions may differ.

Assays:
[1] = test system: BRD2, BRD3 and BRD4 (BET proteins) and interactors; experiment: BioTAC proximity labeling with label-free mass spectrometry-based proteomics of streptavidin-enriched biotinylated proteins; assay type: cell-based
Procedure: (§1) Having determined that the BioTAC system could identify BRD4 as a (+)-JQ1 target in focused screens, it was evaluated as an unbiased target-ID method. To identify direct binders of (+)-JQ1 proteome-wide, BioTAC proximity labelling experiments were performed as described above, followed by label-free mass spectrometry-based proteomic analysis of biotinylated proteins enriched following a 30 minute treatment with 100 μM biotin plus DMSO or 1 μM Cpd1, and then 1 μM Cpd1 off-competed by pre-treatment with 10 μM free (+)-JQ1.
(§2) Having established conditions for determining the primary targets of small molecules using the BioTAC system, its utility in reading out the interactome sphere of (+)-JQ1 bound BET-proteins was next investigated. An advantage of the BioTAC system is the relatively long half-life of the activated biotin-AMP intermediate generated by TurboID, allowing the labelling radius to be increased up to 35 nm by extending the labelling time. To quantitively evaluate the ability of the BioTAC system to successfully enrich the known interactome of (+)-JQ1 bound BET proteins, time course BioTAC proximity labelling experiments were performed at the 1 h and 4 h time points, and evaluated streptavidin-enriched biotinylated proteins using mass spectrometry-based proteomic analysis (FIG. 2A-C, FIG. 6). Longer time points correlated with a greater number of proteins meeting the significance cut-offs (defined as FC>2, P<0.05) for both enrichment in Cpd1 vs. DMSO, and competition with free (+)-JQ1 in Cpd1 vs. Cpd1+10 μM (+)-JQ1, (FIG. 2A, FIG. 6). […] Additionally, identified hit proteins at 1-4 hrs also included many known BET interactors, such as proteins found in components of the Pol II productive elongation complex subunit P-TEFb, the TFILD complex, and the Nucleosome Remodeling Deacetylase (NuRD) complex, as well as known BRD4 direct-binder Histone H4. […] To test this hypothesis the hits were compared to an extensive BET protein interactome reference dataset identified using AP/MS and proximity labelling coupled to mass spectrometry with and without (+)-JQ1. The BioTAC system afforded significant enrichment and off-competition (P<0.0001, one-way ANOVA) of identified reference interactors at the 4 h time point (FIG. 2B). Next it was asked whether the inverse could be performed, enriching complex members identified by Lambert et al. Mol Cell 73, 621-638 e617 (2019) directly from the data without any a priori knowledge of known interactors. It was discovered that 60% of the statistically significant enriched and (+)-JQ1 rescued hits were also present in the Lambert dataset. This observation falls greater than 7 standard deviations above a random bootstrap analysis of the data without filtering for significant enrichment and (+)-JQ1 rescue (FIG. 2C).
(§3) 9 million HEK293 cells were plated into 15 cm dishes containing 12 mL of complete media (DMEM, 10% FBS, 1% pen/strep) and incubated overnight. Cells were transiently transfected with 1 mL of OptiMEM media containing 10 μg of BioTAC plasmid and 30 μL of TransIT-2020 transfection reagent for 24 hr. Following a media change, cells were optionally pre-treated with parental molecules for 10 min, then treated with bifunctional compound for 10 min, and finally labeled in 100 μM biotin for 30 min, 1 hr, or 4 hrs. Cells were washed 5 times with DPBS then harvested by scraping on ice into 1.5 mL tubes. […] Lysates were clarified by centrifuging at 16,000×g for 10 min and protein concentration determined by BCA assay. […]

[2] = molecular target: BRD2, BRD3 and BRD4 (BET proteins) and interactors (Homo sapiens, UniProt P25440); experiment: as above; assay type: cell-based; details: 1 μM, 4 hr timepoint
Sequence of BRD2, BRD3 and BRD4 (BET proteins) and interactors (Homo sapiens, UniProt P25440) (P25440 whole entry): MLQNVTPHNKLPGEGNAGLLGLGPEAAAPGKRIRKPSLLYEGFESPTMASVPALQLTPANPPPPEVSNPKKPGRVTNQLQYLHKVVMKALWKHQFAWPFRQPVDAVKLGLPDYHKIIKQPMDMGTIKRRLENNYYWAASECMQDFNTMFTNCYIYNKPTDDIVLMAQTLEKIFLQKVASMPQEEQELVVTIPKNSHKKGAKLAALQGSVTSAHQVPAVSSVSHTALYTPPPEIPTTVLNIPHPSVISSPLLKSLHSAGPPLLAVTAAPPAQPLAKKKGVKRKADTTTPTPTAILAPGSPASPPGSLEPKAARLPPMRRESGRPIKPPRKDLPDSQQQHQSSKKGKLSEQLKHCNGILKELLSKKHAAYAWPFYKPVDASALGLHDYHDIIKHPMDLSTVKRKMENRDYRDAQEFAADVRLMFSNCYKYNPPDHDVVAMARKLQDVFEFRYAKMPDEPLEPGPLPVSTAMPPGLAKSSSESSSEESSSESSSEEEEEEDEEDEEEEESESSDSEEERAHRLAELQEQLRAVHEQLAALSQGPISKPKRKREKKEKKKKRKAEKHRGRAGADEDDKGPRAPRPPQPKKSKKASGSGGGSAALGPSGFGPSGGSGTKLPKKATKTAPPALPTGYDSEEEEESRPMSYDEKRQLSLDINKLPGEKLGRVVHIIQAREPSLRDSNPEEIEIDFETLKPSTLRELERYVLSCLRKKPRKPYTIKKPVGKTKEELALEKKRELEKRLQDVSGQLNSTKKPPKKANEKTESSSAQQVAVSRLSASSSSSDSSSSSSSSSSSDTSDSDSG
Sequence of BRD2, BRD3 and BRD4 (BET proteins) and interactors (Homo sapiens, UniProt P25440) (as listed by the source partner): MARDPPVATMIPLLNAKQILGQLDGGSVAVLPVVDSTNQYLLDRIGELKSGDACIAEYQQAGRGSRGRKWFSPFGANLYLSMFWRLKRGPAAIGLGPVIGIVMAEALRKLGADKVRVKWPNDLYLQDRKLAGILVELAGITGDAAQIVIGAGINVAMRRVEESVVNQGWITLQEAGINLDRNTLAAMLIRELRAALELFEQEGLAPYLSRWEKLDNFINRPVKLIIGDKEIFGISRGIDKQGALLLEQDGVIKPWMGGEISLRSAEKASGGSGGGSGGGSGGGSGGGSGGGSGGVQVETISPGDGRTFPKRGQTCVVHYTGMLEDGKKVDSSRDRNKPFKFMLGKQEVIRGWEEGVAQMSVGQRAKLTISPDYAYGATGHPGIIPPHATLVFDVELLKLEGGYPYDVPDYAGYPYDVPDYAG
Procedure: as §1, §2, §3

CC[C@H](C(=O)N1CCCC[C@H]1C(=O)O[C@H](CCc1ccc(OC)c(OC)c1)c1ccccc1OCC(=O)NCCOCCOCCOCCNC(=O)C[C@@H]1N=C(c2ccc(Cl)cc2)c2c(sc(C)c2C)-n2c(C)nnc21)c1cc(OC)c(OC)c(OC)c1 [Cpd1, (R)-1-(2-((17-((S)-4-(4-Chlorophenyl)-2,3,9-trimethyl-6H-thieno[3,2-f][1,2,4]triazolo[4,3-a][1,4]diazepin-6-yl)-2,16-dioxo-6,9,12-trioxa-3,15-diazaheptadecyl)oxy)phenyl)-3-(3,4-dimethoxyphenyl)propyl (S)-1-((S)-2-(3,4,5-trimethoxyphenyl)butanoyl)piperidine-2-carboxylate]
identification of BET-containing complexes (proteomics heatmap) ([1]; 1 μM with DMSO, 10 μM or 100 μM (+)-JQ1, FC>3, P<0.05): identifies known BET-containing complexes
enrichment and off-competition of BRD3 and BRD4 (time course proteomics) ([1]; 1 μM, 30 min, 1 h and 4 h, vs DMSO and +10 μM (+)-JQ1, FC>2, P<0.05): significantly enriched and off-competed at all time points
fold-change of reference BRD2, BRD3 and BRD4 interactors (Lambert et al.), rescue by (+)-JQ1 ([1]; 4 hr time point, P<0.0001, 1-way ANOVA): statistically significant rescue
enrichment of BRD3 and BRD4 among biotinylated proteins (proteomics) ([1]; HEK293, 1 μM, 100 μM biotin, 30 min, vs DMSO and 10 μM (+)-JQ1 off-compete): Highly selective enrichment of known (+)-JQ1 targets BRD3 and BRD4; also recorded: significant enrichment of BRD3 and BRD4
detection of BRD2 (proteomics) [2]: detected
